Measured values: patent publication US11224601B1, “Compounds that inhibits MCL-1 protein” (priority 2017, dated 2022)
Like-named read-outs stand apart in the source and are kept apart here.

Experiments:
[1] = target: recombinant human Mcl-1 (Mcl-1/Bim interaction) (Homo sapiens (Human), UniProt Q07820); experiment: biochemical; format: binding; conditions: cell free Mcl-1:Bim TR-FRET; read-out: Mcl-1 HTRF IC50
OPM-2 Luc cells [2] = experiment: Tumor Pharmacodynamics (PD) model; format: in vivo; conditions: dosed orally to female athymic nude mice inoculated with OPM-2 Luc cells; compared with Reference Compound 1
Text: Tumor Pharmacodynamics (PD)
FIGS. 1-7 illustrate the PD results of the cited Examples. The Reference Compound 1, an internal Amgen MC1-1 inhibitor compound made by one of the general schemes outlined in U.S. Pat. No. 9,562,061, herein incorporated by reference, is (1S,3′R,6′R,7′S,8′E,12′R)-6-chloro-12′-ethyl-7′-methoxy-3,4-dihydro-2H,15′H-spiro[naphthalene-1,22′-[20]oxa[13]thia[1,14]diazatetracyclo[14.7.2.0˜3,6˜.0˜19,24˜]pentacosa[8,16,18,24]tetraen]-15′-one 13′,13′-dioxide

OPM-2 Luc cells [3] = experiment: OPM-2 xenograft efficacy model; format: in vivo; conditions: dosed orally to female athymic nude mice inoculated with OPM-2 Luc cells
[4] = system: OPM-2 human multiple myeloma cell line; experiment: Cell Viability Assay (OPM-2 10 FBS), CellTiter-Glo; format: cell-based
Method in brief: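 Compounds, serially diluted, were left on OPM-2 cells (3000 cells/well, 10% FBS RPMI 1640) for 16 h at 37° C. under 5% CO2.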

recombinant human Mcl-1 (Mcl-1/Bim interaction), sequence (Q07820 171-327): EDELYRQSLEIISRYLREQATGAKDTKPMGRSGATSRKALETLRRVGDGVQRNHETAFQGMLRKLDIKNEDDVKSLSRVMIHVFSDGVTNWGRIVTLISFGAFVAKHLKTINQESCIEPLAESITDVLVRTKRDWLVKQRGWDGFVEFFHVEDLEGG

Row | Compound | IC50 [1] [nM] | in vivo efficacy in a tumor PD model relative to Reference Compound 1 (OPM-2 Luc cells [2]) | in vivo efficacy in an OPM-2 xenograft efficacy model (OPM-2 Luc cells [3]) | IC50 ([4]; read-out: OPM-2 10% FBS IC50 IP, OPM-2 cells, 10% FBS, 16 h, CellTiter-Glo) [µM] | IC50 ([4]; Homo sapiens, OPM-2, 16 h, read-out: OPM-2 10% FBS IC50 IP (μM), OPM-2 cells, 10% FBS, 16 h, CellTiter-Glo) [µM]
1 | CCO[C@]1(CN2CCN(C3COC3)CC2)/C=C/C[C@H](C)[C@@H](C)S(=O)(=O)NC(=O)c2ccc3c(c2)N(C[C@@H]2CC[C@H]21)C[C@@]1(CCCc2cc(Cl)ccc21)CO3 [Example 2, (1S,3′R,6′R,7′R,8′E,11′S,12′R)-6-chloro-7′-ethoxy-11′,12′-dimethyl-7′-((4-(3-oxetanyl)-1-piperazinyl)methyl)-3,4-dihydro-2H,15′H-spiro[naphthalene-1,22′-[20]oxa[13]thia[1,14]diazatetracyclo[14.7.2.0˜3,6˜.0˜19,24˜]pentacosa[8,16,18,24]tetraen]-15′-one 13′,13′-dioxide] | 0.109 | superior in vivo efficacy | – | – | –
2 | CCO[C@]1(CN2CCN(C3COC3)CC2)/C=C/C[C@H](C)[C@@H](CCOC)S(=O)(=O)NC(=O)c2ccc3c(c2)N(C[C@@H]2CC[C@H]21)C[C@@]1(CCCc2cc(Cl)ccc21)CO3 [Example 14, (1S,3′R,6′R,7′R,8′E,11′S,12′R)-6-chloro-7′-ethoxy-12′-(2-methoxyethyl)-11′-methyl-7′-((4-(3-oxetanyl)-1-piperazinyl)methyl)-3,4-dihydro-2H,15′H-spiro[naphthalene-1,22′-[20]oxa[13]thia[1,14]diazatetracyclo[14.7.2.0˜3,6˜.0˜19,24˜]pentacosa[8,16,18,24]tetraen]-15′-one 13′,13′-dioxide] | 0.08 | superior in vivo efficacy | – | – | –
3 | CCO[C@]1(CN2CCN3CCOC[C@@H]3C2)/C=C/C[C@H](C)[C@@H](CCOC)S(=O)(=O)NC(=O)c2ccc3c(c2)N(C[C@@H]2CC[C@H]21)C[C@@]1(CCCc2cc(Cl)ccc21)CO3 [Example 13, (1S,3′R,6′R,7′R,8′E,11′S,12′R)-6-chloro-7′-ethoxy-7′-((9aS)-hexahydropyrazino[2,1-c][1,4]oxazin-8(1H)-ylmethyl)-12′-(2-methoxyethyl)-11′-methyl-3,4-dihydro-2H,15′H-spiro[naphthalene-1,22′-[20]oxa[13]thia[1,14]diazatetracyclo[14.7.2.0˜3,6˜.0˜19,24˜]pentacosa[8,16,18,24]tetraen]-15′-one 13′,13′-dioxide] | 0.094 | superior in vivo efficacy | in vivo efficacy | – | –
4 | (1S,3′R,6′R,7′R,8′E,11′S,12′R)-6-chloro-7′-((9aS)-hexahydropyrazino[2,1-c][1,4]oxazin-8(1H)-ylmethyl)-7′-methoxy-12′-(2-methoxyethyl)-11′-methyl-3,4-dihydro-2H,15′H-spiro[naphthalene-1,22′-[20]oxa[13]thia[1,14]diazatetracyclo[14.7.2.0˜3,6˜.0˜19,24˜]pentacosa[8,16,18,24]tetraen]-15′-one 13,13′-dioxide [Example 11] | – | – | in vivo efficacy | 0.051 | –
5 | CO[C@@]1(CN2CCN3CCOC[C@@H]3C2)/C=C/C[C@H](C)[C@@H](C)S(=O)(=O)NC(=O)c2ccc3c(n2)N(C[C@@H]2CC[C@H]21)C[C@@]1(CCCc2cc(Cl)ccc21)CO3 [Example 18, (1S,3′R,6′R,7′S,8′E,11′S,12′R)-6-chloro-7′-((9aS)-hexahydropyrazino[2,1-c][1,4]oxazin-8(1H)-ylmethyl)-7′-methoxy-11′,12′-dimethyl-3,4-dihydro-2H,15′H-spiro[naphthalene-1,22′-[20]oxa[13]thia[1,14,25]triazatetracyclo[14.7.2.0˜3,6˜.0˜19,24˜]pentacosa[8,16,18,24]tetraen]-15′-one 13′,13′-dioxide] | 0.06 | superior in vivo efficacy | in vivo efficacy | – | 0.022
